Reference: patent publication US12662489B2 (Sitryx Therapeutics Limited, priority 2023, dated 2026)

Key:
[1] = biological target: T1, MTHFD2 recombinant human enzyme (Homo sapiens, UniProt P13995); test: MTHFD2 inhibition assay (NAD(P)H-Glo luminescence); conditions: for MTHFD1/MTHFD2 IC50 ratio: selectivity of MTHFD2 inhibition over MTHFD1, band
T1 sequence (P13995 36-350): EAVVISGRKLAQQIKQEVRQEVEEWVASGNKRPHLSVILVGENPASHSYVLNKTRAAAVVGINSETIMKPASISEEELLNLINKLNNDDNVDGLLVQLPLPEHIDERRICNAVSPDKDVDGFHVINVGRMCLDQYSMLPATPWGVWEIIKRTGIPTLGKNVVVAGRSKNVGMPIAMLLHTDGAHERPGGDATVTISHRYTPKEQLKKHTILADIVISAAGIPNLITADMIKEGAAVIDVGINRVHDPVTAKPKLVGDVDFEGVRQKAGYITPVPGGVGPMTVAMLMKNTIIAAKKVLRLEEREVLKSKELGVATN

[2] = biological target: T2, MTHFD1 recombinant human enzyme (Homo sapiens, UniProt P11586); test: MTHFD1 inhibition assay (NAD(P)H-Glo luminescence); conditions: MTHFD1 IC50, recombinant human enzyme 200 nM, NADP, band
T2 sequence (P11586 2-291 limits assumed): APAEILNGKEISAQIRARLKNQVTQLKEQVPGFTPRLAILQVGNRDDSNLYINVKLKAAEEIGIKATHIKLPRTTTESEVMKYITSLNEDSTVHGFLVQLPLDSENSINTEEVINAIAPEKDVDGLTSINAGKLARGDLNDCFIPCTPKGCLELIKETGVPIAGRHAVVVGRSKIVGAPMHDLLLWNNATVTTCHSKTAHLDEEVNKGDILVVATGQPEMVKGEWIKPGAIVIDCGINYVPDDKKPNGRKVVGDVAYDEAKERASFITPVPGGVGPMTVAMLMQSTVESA

| Compound | IC50 [1] | MTHFD1/MTHFD2 IC50 ratio [1] | IC50 [2] |
| --- | --- | --- | --- |
| COC[C@H]1CN(c2cc(Cl)c3c4c(c(=O)oc3c2C)CN(C(=O)c2cc(OC)c(C(=O)NS(=O)(=O)N(C3CC3)C3CC3)cc2F)CC4)CCN1C [Example 297, (R)-4-(10-chloro-8-(3-(methoxymethyl)-4-methylpiperazin-1-yl)-7-methyl-5-oxo-1,3,4,5-tetrahydro-2H-chromeno[3,4-c]pyridine-3-carbonyl)-N-(N,N-dicyclopropylsulfamoyl)-5-fluoro-2-methoxybenzamide] | 10 to 100 nM | H (>9.0 to 30) | 100 to 1000 nM |
| COC[C@H]1CN(c2ccc3c4c(c(=O)oc3c2C)CN(C(=O)c2c(C)cc(C(=O)NS(=O)(=O)N3CCCC3)c(OC3CCC3)c2F)CC4)CCN1C [Example 140, (R)-2-cyclobutoxy-3-fluoro-4-(8-(3-(methoxymethyl)-4-methylpiperazin-1-yl)-7-methyl-5-oxo-1,3,4,5-tetrahydro-2H-chromeno[3,4-c]pyridine-3-carbonyl)-5-methyl-N-(pyrrolidin-1-ylsulfonyl) benzamide] | 100 to 1000 nM | F (<3) | 100 to 1000 nM |
| COC[C@H]1CN(c2cc(C)c3c4c(c(=O)oc3c2C)CN(C(=O)c2cc(C)c(C(=O)NS(=O)(=O)N(C)C)c(N3CCCC3)c2)CC4)CCN1C [Example 106, (R)-N-(N,N-dimethylsulfamoyl)-4-(8-(3-(methoxymethyl)-4-methylpiperazin-1-yl)-7,10-dimethyl-5-oxo-1,3,4,5-tetrahydro-2H-chromeno[3,4-c]pyridine-3-carbonyl)-2-methyl-6-(pyrrolidin-1-yl)benzamide] | 10 to 100 nM | H (>9.0 to 30) | 100 to 1000 nM |
| COC[C@H]1CN(c2cc(C)c3c4c(c(=O)oc3c2C)CN(C(=O)c2ccc(C(=O)NS(=O)(=O)N3CCCC3)c(N3CCC[C@@H]3C)c2)CC4)CCN1C [Example 122, 4-(8-((R)-3-(methoxymethyl)-4-methylpiperazin-1-yl)-7,10-dimethyl-5-oxo-1,3,4,5-tetrahydro-2H-chromeno[3,4-c]pyridine-3-carbonyl)-2-((S)-2-methylpyrrolidin-1-yl)-N-(pyrrolidin-1-ylsulfonyl)benzamide] | 10 to 100 nM | F (<3) | 10 to 100 nM |
| COC[C@H]1CN(c2ccc3c4c(c(=O)oc3c2Cl)CN(C(=O)c2ccc(C(=O)NS(=O)(=O)C3(C)CC3)c(O[C@@H]3C[C@@H]5C[C@@H]5C3)c2F)CC4)CCN1C [Example 60, 2-(((1R,3r,5S)-bicyclo[3.1.0]hexan-3-yl)oxy)-4-(7-chloro-8-((R)-3-(methoxymethyl)-4-methylpiperazin-1-yl)-5-oxo-1,3,4,5-tetrahydro-2H-chromeno[3,4-c]pyridine-3-carbonyl)-3-fluoro-N-((1-methylcyclopropyl)sulfonyl)benzamide] | 1 to 10 nM | F (<3) | 1 to 10 nM |
| COC[C@H]1CN(c2cc(Cl)c3c4c(c(=O)oc3c2C)CN(C(=O)c2ccc(C(=O)NS(=O)(=O)N3CCC[C@H]3COC)c(OC)c2)CC4)CCN1C [Example 283, 4-(10-chloro-8-((R)-3-(methoxymethyl)-4-methylpiperazin-1-yl)-7-methyl-5-oxo-1,3,4,5-tetrahydro-2H-chromeno[3,4-c]pyridine-3-carbonyl)-2-methoxy-N-(((S)-2-(methoxymethyl)pyrrolidin-1-yl)sulfonyl)benzamide] | 10 to 100 nM | H (>9.0 to 30) | 1000 to 5000 nM |
| COC[C@H]1CN(c2cc(C)c3c4c(c(=O)oc3c2C)CN(C(=O)c2ccc(C(=O)NS(=O)(=O)N3CCCC3)c(N3CCCC3)c2)CC4)CCN1C [Example 96, (R)-4-(8-(3-(methoxymethyl)-4-methylpiperazin-1-yl)-7,10-dimethyl-5-oxo-1,3,4,5-tetrahydro-2H-chromeno[3,4-c]pyridine-3-carbonyl)-2-(pyrrolidin-1-yl)-N-(pyrrolidin-1-ylsulfonyl)benzamide] | 1 to 10 nM | G (^ 3 to 9.0) | 1 to 10 nM |
| COC[C@H]1CN(c2cc(C)c3c4c(c(=O)oc3c2C)CN(C(=O)c2cc(OC3CCC3)cc(C(=O)NS(=O)(=O)N3CCCC3)c2)CC4)CCN1C [Example 164, (R)-3-cyclobutoxy-5-(8-(3-(methoxymethyl)-4-methylpiperazin-1-yl)-7,10-dimethyl-5-oxo-1,3,4,5-tetrahydro-2H-chromeno[3,4-c]pyridine-3-carbonyl)-N-(pyrrolidin-1-ylsulfonyl)benzamide] | 100 to 1000 nM | H (>9.0 to 30) | > 5000 nM |
| COC[C@H]1CN(c2cc(C)c3c4c(c(=O)oc3c2C)CN(C(=O)c2cc(N3CCCC3)c(C(=O)NS(=O)(=O)N3CCCC3)cc2F)CC4)CCN1C [Example 141, (R)-5-fluoro-4-(8-(3-(methoxymethyl)-4-methylpiperazin-1-yl)-7,10-dimethyl-5-oxo-1,3,4,5-tetrahydro-2H-chromeno[3,4-c]pyridine-3-carbonyl)-2-(pyrrolidin-1-yl)-N-(pyrrolidin-1-ylsulfonyl)benzamide] | 10 to 100 nM | F (<3) | 10 to 100 nM |
| COC[C@H]1CN(c2ccc3c4c(c(=O)oc3c2Cl)CN(C(=O)c2ccc(C(=O)NS(=O)(=O)N3CCCC3)c(OC3CCCC3)c2F)CC4)CCN1C [Example 6, (R)-4-(7-chloro-8-(3-(methoxymethyl)-4-methylpiperazin-1-yl)-5-oxo-1,3,4,5-tetrahydro-2H-chromeno[3,4-c]pyridine-3-carbonyl)-2-(cyclopentyloxy)-3-fluoro-N-(pyrrolidin-1-ylsulfonyl)benzamide] | 10 to 100 nM | F (<3) | 1 to 10 nM |
| COC[C@H]1CN(c2cc(C)c3c4c(c(=O)oc3c2C)CN(C(=O)c2ccc(C(=O)NS(=O)(=O)N3CCCC3)c(O[C@@H]3C[C@@H]5C[C@@H]5C3)c2F)CC4)CCN1C [Example 35, 2-(((1R,3r,5S)-bicyclo[3.1.0]hexan-3-yl)oxy)-3-fluoro-4-(8-((R)-3-(methoxymethyl)-4-methylpiperazin-1-yl)-7,10-dimethyl-5-oxo-1,3,4,5-tetrahydro-2H-chromeno[3,4-c]pyridine-3-carbonyl)-N-(pyrrolidin-1-ylsulfonyl)benzamide] | 1 to 10 nM | F (<3) | 1 to 10 nM |
| CCOc1c(C(=O)NS(=O)(=O)N2CCCCC2)ccc(C(=O)N2CCc3c(c(=O)oc4c(C)c(N5CCN(C)[C@@H](COC)C5)ccc34)C2)c1F [Example 198, (R)-2-ethoxy-3-fluoro-4-(8-(3-(methoxymethyl)-4-methylpiperazin-1-yl)-7-methyl-5-oxo-1,3,4,5-tetrahydro-2H-chromeno[3,4-c]pyridine-3-carbonyl)-N-(piperidin-1-ylsulfonyl)benzamide] | 100 to 1000 nM | F (<3) | 100 to 1000 nM |
| COC[C@H]1CN(c2ccc3c4c(c(=O)oc3c2C)CN(C(=O)c2cc(F)c(C(=O)NS(=O)(=O)N(C)C)c(N3C5CCC3CC5)c2)CC4)CCN1C [Example 23, (R)-2-(7-azabicyclo[2.2.1]heptan-7-yl)-N-(N,N-dimethylsulfamoyl)-6-fluoro-4-(8-(3-(methoxymethyl)-4-methylpiperazin-1-yl)-7-methyl-5-oxo-1,3,4,5-tetrahydro-2H-chromeno[3,4-c]pyridine-3-carbonyl)benzamide] | 1 to 10 nM | F (<3) | 1 to 10 nM |
| COC[C@H]1CN(c2cc(C)c3c4c(c(=O)oc3c2C)CN(C(=O)c2cc(N(C)C)c(C(=O)NS(=O)(=O)N3CCC[C@@H]3C(F)(F)F)cc2F)CC4)CCN1C [Example 287, 2-(dimethylamino)-5-fluoro-4-(8-((R)-3-(methoxymethyl)-4-methylpiperazin-1-yl)-7,10-dimethyl-5-oxo-1,3,4,5-tetrahydro-2H-chromeno[3,4-c]pyridine-3-carbonyl)-N-(((R)-2-(trifluoromethyl)pyrrolidin-1-yl)sulfonyl)benzamide] | 10 to 100 nM | H (>9.0 to 30) | 100 to 1000 nM |
| COC[C@H]1CN(c2ccc3c4c(c(=O)oc3c2C)CN(C(=O)c2ccc(C(=O)NS(=O)(=O)N3C5CCC3CC5)c(OC3CCC3)c2F)CC4)CCN1C [Example 176, (R)—N-((7-azabicyclo[2.2.1]heptan-7-yl)sulfonyl)-2-cyclobutoxy-3-fluoro-4-(8-(3-(methoxymethyl)-4-methylpiperazin-1-yl)-7-methyl-5-oxo-1,3,4,5-tetrahydro-2H-chromeno[3,4-c]pyridine-3-carbonyl)benzamide] | 10 to 100 nM | F (<3) | 10 to 100 nM |
| COC[C@H]1CN(c2ccc3c4c(c(=O)oc3c2Cl)CN(C(=O)c2ccc(C(=O)NS(=O)(=O)N3CCCC3)c(OC3CCC3)c2)CC4)CCN1C [Example 14, (R)-4-(7-chloro-8-(3-(methoxymethyl)-4-methylpiperazin-1-yl)-5-oxo-1,3,4,5-tetrahydro-2H-chromeno[3,4-c]pyridine-3-carbonyl)-2-cyclobutoxy-N-(pyrrolidin-1-ylsulfonyl)benzamide] | 10 to 100 nM | F (<3) | 10 to 100 nM |
